Data taken from patent US12501900B2, “Heterocyclyl pyridazine as fungicidal compounds” (Bayer Aktiengesellschaft, priority 2018, dated 2025).

Assays:
Septoria tritici = Septoria tritici in vitro cell test; assay type: cell-based; conditions: Zymoseptoria tritici, 168 h; 20 ppm of active ingredient; liquid culture, 7 days incubation; read-out: efficacy (inhibition of fungal growth)
Experimental: Example: Septoria tritici In Vitro Cell Test • Solvent: DMSO • Culture medium: 14.6 g anhydrous D-glucose (VWR), 7.1 g Bacteriological Peptone (Oxoid), • 1.4 g granulated Yeast Extract (Merck), QSP 1 liter • Inoculum: spore suspension Fungicides were solubilized in DMSO and the solution used to prepare the required range of concentrations. The final concentration of DMSO used in the assay was ≤1%. A spore suspension of Septoria tritici was prepared and diluted to the desired spore density. Fungicides were evaluated for their ability to inhibit spore germination and mycelium growth in liquid culture assay. The compounds were added in the desired concentration to the culture medium with spores. After 7 days incubation, fungi-toxicity of compounds was determined by spectrometric measurement of mycelium growth. Inhibition of fungal growth was determined by comparing the absorbance values in wells containing the fungicides with the absorbance in control wells without fungicides.

Alternaria alternata = Alternaria alternata in vitro cell test; assay type: cell-based; conditions: 120 h, 20 ppm of active ingredient, liquid culture, 5 days incubation, read-out: efficacy (inhibition of fungal growth)

SMILES	inhibition at 20 ppm (Septoria tritici) [%]	inhibition at 20 ppm (Alternaria alternata) [%]
COCCOc1c(Cl)nnc(Oc2cccc(C(F)(F)F)c2)c1C1=NOCC(Cc2ccc(C)cc2C)N1 (racemic) [I-072, rac-3-[6-chloro-5-(2-methoxyethoxy)-3-[3-(trifluoro-methyl)phenoxy]pyridazin-4-yl]-5-[(2,4-dimethylphenyl)methyl]-5,6-dihydro-4H-1,2,4-oxadiazine]	80 to 89	90 to 100
C=C(OCC)c1cc(C2=NOCC(Cc3ccc(C)cc3C)N2)c(Oc2cccc(C(F)(F)F)c2)nn1 (racemic) [I-009, rac-5-[(2,4-dimethylphenyl)methyl]-3-[6-(1-ethoxyvinyl)-3-[3-(trifluoro-methyl)phenoxy]pyridazin-4-yl]-5,6-dihydro-4H-1,2,4-oxadiazine]	90 to 100	90 to 100
COc1cccc(Oc2nnc(Cl)cc2C2=NOCC(Cc3ccc(C)cc3C)N2)c1F (racemic) [I-005, rac-3-[6-chloro-3-(2-fluoro-3-methoxy-phenoxy)pyridazin-4-yl]-5-[(2,4-dimethylphenyl)methyl]-5,6-dihydro-4H-1,2,4-oxadiazine]	70 to 79	90 to 100
FC(F)(F)c1cccc(Oc2nnc(Cl)cc2C2=NOCC(Cc3ccc(Br)cc3Cl)N2)c1 (racemic) [I-016, rac-5-[(4-bromo-2-chloro-phenyl)methyl]-3-[6-chloro-3-[3-(trifluoromethyl)phenoxy]pyridazin-4-yl]-5,6-dihydro-4H-1,2,4-oxadiazine]	90 to 100	90 to 100
